Values after ≈ are worked out from the molar mass of the structure shown. Where two headings read alike, the source gives them in different places.
How the values were obtained:
patient sample microbes [1] = assay: AST on 384-well patient cartridge panel made from Master Plate, antimicrobial panel 1; assay type: cell-based; details: master cartridge format
From the text: (§1) An assay setup comprises preparation of patient (target) cartridge by dispensing antimicrobials were from the master cartridge or intermediate serial dilution cartridges into one or more 384 reservoir patient cartridge, each antimicrobial in about 7 serial dilutions in triplicate, and covering the dynamic range of each antimicrobial that is known to be effective and therefore should be reported. The dilution range included the expected minimum inhibitory concentration (MIC) for each antimicrobial. But most importantly, dilution ranges, that is, antimicrobial concentrations beyond the range known to be effective are included in the patient cartridge as per the present invention.
(§2) The remaining reservoirs of the 384 well patient cartridge are utilized for setting up test controls: a no-antimicrobial control (negative control) was included for each antimicrobial compound; and a positive control was included for each antimicrobial set, where a microorganism that is not susceptible to the antimicrobial was added to the well. Each control set was also dispensed at least in duplicate per 384 well cartridge. Additional test controls may be included as deemed necessary by one of skill in the art. Equal amount of a patient sample was dispensed to each of the wells in the cartridge, except in the wells designated for no-sample control, if included. The patient cartridge was ready for determination of susceptibility of microbes from the patient sample to the twelve antimicrobials at the range of concentrations applied, simultaneously. Multiple such plates can be set up in parallel for testing samples from multiple patients, each patient sample per plate. An AST assay was performed on the prepared patient cartridges.
(§3) Shown in Table 5 and Table 6, MIC results for antimicrobial panels 1 and 2 respectively using a master cartridge format and a 384 well patient cartridge (column 3) agrees reliably with that run by standard 96 well AST assay plate (right hand column).

patient sample microbes [2] = assay: Standard 96-well AST assay plate, antimicrobial panel 1; assay type: cell-based
From the text: as §3

[3] = MIC, antimicrobial panel 1; cited from earlier work
patient sample microbes [4] = assay: AST on 384-well patient cartridge panel made from Master Plate, antimicrobial panel 2; assay type: cell-based; set-up: unit not given here; details: master cartridge format
From the text: as §1, §2, §3

patient sample microbes [5] = assay: Standard 96-well AST assay plate, antimicrobial panel 2; assay type: cell-based; set-up: unit not given here
From the text: as §3

[6] = MIC, antimicrobial panel 2; cited from earlier work
[7] = test system: clinical isolate of S aureus; assay: Broth microdilution reference method; assay type: cell-based; details: read-out: MICs obtained from the broth microdilution reference method
Protocol: The antibiotics shown are vancomycin, daptomycin, ceftaroline and levofloxacin, of which the MICs obtained from the broth microdilution reference method for this strain were 0.5, 0.25, 0.12, and 0.25 μg/ml, respectively. A clinical isolate of S aureus was used. Data represents the TRF signal in RFUs. Graphs in the top row contain data from 384-well plates. Graphs in the bottom row contain data from 96-well plates.

| Compound | MICs obtained from panel made from Master Plate (patient sample microbes [1]) | MICs obtained from 96-well Antibiotic Panel (patient sample microbes [2]) | Quality Control Range [3] | MICs obtained from panel made from Master Plate (patient sample microbes [4]) | MICs obtained from 96-well Antibiotic Panel (patient sample microbes [5]) | Quality Control Range [6] | MIC ([7]; clinical isolate of S aureus) | MIC [7] |
| --- | --- | --- | --- | --- | --- | --- | --- | --- |
| NCC[C@H](O)C(=O)N[C@@H]1C[C@H](N)[C@@H](O[C@H]2O[C@H](CN)[C@@H](O)[C@H](O)[C@H]2O)[C@H](O)[C@H]1O[C@H]1O[C@H](CO)[C@@H](O)[C@H](N)[C@H]1O [Amikacin] | 4 | 4 | 0.5-4 | – | – | – | – | – |
| CC1(C)S[C@@H]2[C@H](NC(=O)[C@H](N)c3ccccc3)C(=O)N2[C@H]1C(=O)O [Ampicillin] | 4 | 8 | 2-8 | 1 | 1 | 0.5-2 | – | – |
| CO/N=C(\C(=O)N[C@@H]1C(=O)N2C(C(=O)[O-])=C(C[N+]3(C)CCCC3)CS[C@H]12)c1csc(N)n1 [Cefepime] | ≤0.25 | ≤0.03 | 0.015-0.12 | – | – | – | – | – |
| CCO/N=C(\C(=O)N[C@@H]1C(=O)N2C(C(=O)[O-])=C(Sc3nc(-c4cc[n+](C)cc4)cs3)CS[C@H]12)c1nsc(N)n1 [Ceftaroline] | – | – | – | 0.5 | 0.25 | – | 0.12 µg/mL (≈ 0.198 µM) | – |
| CC(C)(O/N=C(\C(=O)N[C@@H]1C(=O)N2C(C(=O)[O-])=C(C[n+]3ccccc3)CS[C@H]12)c1csc(N)n1)C(=O)O [Ceftazidime] | <1 | 0.25 | 0.06-0.5 | 4 | 8 | 4-16 | – | – |
| CO/N=C(\C(=O)N[C@@H]1C(=O)N2C(C(=O)O)=C(CSc3nc(=O)c(=O)[nH]n3C)CS[C@H]12)c1csc(N)n1 [Ceftriaxone] | ≤0.125 | ≤0.12 | 0.03-0.12 | 2 | 4 | 1-8 | – | – |
| C[C@H]1COc2c(N3CCN(C)CC3)c(F)cc3c(=O)c(C(=O)O)cn1c23 [Levofloxacin] | ≤0.25 | ≤0.06 | – | ≤0.25 | 0.25 | – | 0.25 µg/mL (≈ 0.692 µM) | – |
| CC(=O)NC[C@H]1CN(c2ccc(N3CCOCC3)c(F)c2)C(=O)O1 [Linezolid] | – | – | – | 2 | 2 | 1-4 | – | – |
| Cc1onc(-c2ccccc2)c1C(=O)N[C@@H]1C(=O)N2[C@@H]1SC(C)(C)[C@@H]2C(=O)O [Oxacillin] | – | – | – | 0.5 | 0.5 | 0.12-0.5 | – | – |
| CO[C@H]1/C=C/O[C@@]2(C)Oc3c(C)c(O)c4c(O)c(c(/C=N/N5CCN(C)CC5)c(O)c4c3C2=O)NC(=O)/C(C)=C\C=C\[C@H](C)[C@H](O)[C@@H](C)[C@@H](O)[C@@H](C)[C@H](OC(C)=O)[C@@H]1C [Rifampin] | – | – | – | ≤0.25 | 0.004 | 0.004-0.015 | – | – |
| Cn1nnc(-c2ccc(-c3ccc(N4C[C@H](CO)OC4=O)cc3F)cn2)n1 [Tedizolid] | – | – | – | 0.25 | 0.5 | 0.25-1 | – | – |
| NC[C@H]1O[C@H](O[C@H]2[C@H](O)[C@@H](O[C@H]3O[C@H](CO)[C@@H](O)[C@H](N)[C@H]3O)[C@H](N)C[C@@H]2N)[C@H](N)C[C@@H]1O [Tobramycin] | 0.5 | 1 | 0.25-1 | – | – | – | – | – |
| CCCCCCCCCC(=O)N[C@@H](Cc1c[nH]c2ccccc12)C(=O)N[C@H](CC(N)=O)C(=O)N[C@@H](CC(=O)O)C(=O)N[C@@H]1C(=O)NCC(=O)N[C@@H](CCCN)C(=O)N[C@@H](CC(=O)O)C(=O)N[C@H](C)C(=O)N[C@@H](CC(=O)O)C(=O)NCC(=O)N[C@H](CO)C(=O)N[C@@H]([C@H](C)CC(=O)O)C(=O)N[C@@H](CC(=O)c2ccccc2N)C(=O)O[C@@H]1C [daptomycin] | – | – | – | – | – | – | 0.25 µg/mL (≈ 0.154 µM) | – |
| CN[C@H](CC(C)C)C(=O)N[C@H]1C(=O)N[C@@H](CC(N)=O)C(=O)N[C@H]2C(=O)N[C@H]3C(=O)N[C@H](C(=O)N[C@H](C(=O)O)c4cc(O)cc(O)c4-c4cc3ccc4O)[C@H](O)c3ccc(c(Cl)c3)Oc3cc2cc(c3O[C@@H]2O[C@H](CO)[C@@H](O)[C@H](O)[C@H]2O[C@H]2C[C@](C)(N)[C@H](O)[C@H](C)O2)Oc2ccc(cc2Cl)[C@H]1O [vancomycin] | – | – | – | – | – | – | – | 0.5 µg/mL (≈ 0.345 µM) |
| Ampicillin-Sulbactam | 8 µg/mL | 8 µg/mL | 2-8 | – | – | – | – | – |
| Piperacillin-tazobactam | ≤ 1 µg/mL | 4 µg/mL | 1-4 | – | – | – | – | – |

Reference: patent publication US20190276871A1, “Antimicrobial Cartridges and Processes for Antimicrobial Susceptibility Testing” (SeLux Diagnostics, Inc., priority 2017, published 2019)
